Measurements from patent US20220220099A1, “BENZAMIDE COMPOUND, AND HERBICIDE” (Nippon Soda Co., Ltd., priority 2019, published 2022).

Test system: not given
Assay: not given
Settings: not given

Compared with `Cn1nnnc1NC(=O)c1ccc(C(F)(F)F)c2c1CCCS2` [a-37, N-(1-Methyl-1H-tetrazol-5-yl)-8-(trifluoromethyl)thiochromane-5-carboxamide], `Cn1nnnc1NC(=O)c1ccc(C(F)(F)F)c2c1C(F)CCS2` (stereo not drawn) [b-11] is lower in melting point: 166 to 167 °C for the first, 132 to 135 °C for the second.

`CCOC1CS(=O)(=O)c2c(C(F)(F)F)ccc(C(=O)Nc3nnnn3C)c21` (stereo not drawn) [b-1] and `Cn1nnnc1NC(=O)c1ccc(C(F)(F)F)c2c1C(Br)CS2(=O)=O` (stereo not drawn) [b-4] fall in the same range of melting point: 209 to 211 °C for the first, 209 to 211 °C for the second.

Compared with `COCC1Cc2c(C(=O)Nc3nnnn3C)ccc(C(F)(F)F)c2S1(=O)=O` (stereo not drawn) [b-2], `COC1Cc2c(C(=O)Nc3nnnn3C)ccc(C(F)(F)F)c2S(=O)(=O)C1` (stereo not drawn) [b-8] is higher in melting point: 215 to 217 °C for the first, 226 to 228 °C for the second.

First: Cn1nnnc1NC(=O)c1ccc(C(F)(F)F)c2c1C(O)CS2(=O)=O (stereo not drawn) [b-3]
Second: Cn1nnnc1NC(=O)c1ccc(C(F)(F)F)c2c1C(F)CCS2(=O)=O (stereo not drawn) [b-10]
The melting point of the first is lower: 202 to 205 °C for the first, 220 to 223 °C for the second.

First: COC1CS(=O)(=O)c2c(C(F)(F)F)ccc(C(=O)Nc3nnc(C)o3)c21 (stereo not drawn) [b-5]
Second: Cc1nnc(NC(=O)c2ccc(C(F)(F)F)c3c2CCC(C)S3)o1 (stereo not drawn) [b-14]
The melting point of the first is higher: 206 to 207 °C for the first, 182 to 183 °C for the second.

Compared with `COC1CSc2c(C(F)(F)F)ccc(C(=O)Nc3nnnn3C)c2C1` (stereo not drawn) [b-9], `CC1CCc2c(C(=O)Nc3nnnn3C)ccc(C(F)(F)F)c2S1(=O)=O` (stereo not drawn) [b-12] is higher in melting point: 168 to 170 °C for the first, 270 to 271 °C for the second.

Compared with `Cn1nnnc1NC(=O)c1ccc(C(F)(F)F)c2c1CCCS2(=O)=NC#N` (stereo not drawn) [b-19], `Cn1nnnc1NC(=O)c1ccc(C(F)(F)F)c2c1CCCS2(=O)=Nc1ccccc1` (stereo not drawn) [b-23] is lower in melting point: 151 to 153 °C for the first, 110 to 112 °C for the second.

Compared with `CC1CCc2c(C(=O)Nc3nnnn3C)ccc(C(F)(F)F)c2/S1=N/C#N` (stereo not drawn) [b-21], `COc1ccc(N=S2(=O)CCCc3c(C(=O)Nc4nnnn4C)ccc(C(F)(F)F)c32)cc1` (stereo not drawn) [b-22] is higher in melting point: 117 to 120 °C for the first, 123 to 124 °C for the second.

`Cn1nnnc1NC(=O)c1ccc(C(F)(F)F)c2c1CCCS2(=O)=Nc1ccc(Cl)cc1` (stereo not drawn) [b-24] gave a melting point of 113 to 114 °C.

Test system: Apera spica-venti
Assay: Test Example 2: spraying treatment on stems and leaves, herbicidal rate
Type: in vivo
Settings: spray amount of 16 g, three weeks later
Method: Emulsion for testing was prepared according to the preparation method described in Test Example 1.
A 150 cm^2 pot was filled with soil, and seeds of Avena sativa, Lolium multiflorum and Apera spica-venti were sowed on the surface layer, and after the soil was covered lightly, the Avena sativa, Lolium multiflorum and Apera spica-venti were grown in a greenhouse. At the point in time when Avena sativa was grown to a plant height of 16 to 20 cm, Lolium multiflorum was grown to a plant height of 10 to 14 cm, and Apera spica-venti was grown to a plant height of 2 to 4 cm, the emulsion for testing was diluted in such a way as to have a predetermined amount of an active ingredient and was sprayed on the leaves and stems in a spray amount of water of 250 L per hectare with a small-sized atomizer.
Three weeks later, the weight of a living weed above the ground was measured for each weed in the nontreated zone and in the treated zone to calculate a herbicidal rate by the following calculation formula.
Herbicidal rate (%)=(weight of living weed above ground in nontreated zone−weight of living weed above ground in treated zone)/(weight of living weed above ground in nontreated zone)×100 […]

For `O=C(Nc1nnnn1CC(F)(F)F)c1ccc(C(F)(F)F)c2c1CCCS2` [c-6], the “herbicidal activity (Apera spica-venti, follows Table 10)” value was no less than 80%.
